The values that follow are results of earlier work, collected in patent US10130578B2, “Topical delivery of skin compositions having low pH” (Johnson & Johnson Consumer Inc., priority 2015, dated 2018).

As usually defined, the pKa is the negative logarithm of the acid dissociation constant.

Hyaluronic acid: the pKa was 2.9.
